Results as given in patent EP4483954A1 (Masarykova Univerzita, priority 2023, dated 2025).

Assays:
Assay type in all cases: biochemical
CDKL4(h) = molecular target: T1, CDKL4(h) (Homo sapiens, UniProt Q5MAI5); assay: radiometric kinase assay (KinaseProfiler, Eurofins), CDKL4; conditions: in vitro radiometric kinase assay, tested at 1 nM to 10 000 nM, no pre-incubation; read-out: inhibitory activities (IC50 values) CDKL4
T1 construct: purchased Eurofins (KinaseProfiler)
Description: (§1) The compounds were profiled in the radiometric assays (KinaseProfiler, Eurofins).
(§2) Briefly, kinases were diluted in the buffer shown below prior to addition to the reaction mix: • CDKL3, TAF1L: 20 mM Tris/HCl pH 8.5, 0.2 mM EDTA, 0.1% β-mercaptoethanol, 0.01% Brij-35, 5% glycerol, 1 mg/ml BSA; • Haspin: 15 mM MOPS, 0.75 mM EDTA, 0.0075% Brij-35, 3.75% Glycerol, 150 mM NaCl, 0.1% β-mercaptoethanol, 1 mg/mLBSA; • CDKL4, CLK2, PIM1, TRB2: […], 1 mM EDTA, 0.01% Brij-35, 5% Glycerol, 0.1% β-mercaptoethanol, 1 mg/mL BSA.
(§3) All compounds were prepared to 50x final assay concentration in 100% DMSO. This working stock of the compound was added to the assay well as the first component in the reaction, followed by the remaining components as detailed in the general assay protocols below. There was no pre-incubation step between the compound and the kinase prior to initiation of the reaction.
(§4) CDKL4(h) was incubated with 8 mM MOPS pH 7.0, 0.2 mM EDTA, 250 µM RRRFRPASPLRGPPK (SEQ ID NO. 1), 10 mM magnesium acetate and γ-^33P-ATP (specific activity and concentration as required). The reaction was initiated by the addition of the Mg/ATP mix. After incubation for 120 minutes at room temperature, the reaction was stopped by the addition of phosphoric acid to a concentration of 0.5%. An aliquot of the stopped reaction was spotted onto a filter and washed four times for 4 minutes in 0.425% phosphoric acid and once in methanol prior to drying and scintillation counting.
(§5) Kinase activity data were expressed as the percent remaining kinase activity in tested samples compared to the vehicle (DMSO) reactions. The compounds were tested at the following concentrations: 1 nM, 3 nM, 10 nM, 30 nM, 100 nM, 300 nM, 1000 nM, 3000 nM, and 10 000 nM; IC50 values and curve fits were then obtained.

DYRK2 (h) = molecular target: T2, DYRK2 (h) (Homo sapiens, UniProt Q92630); assay: radiometric kinase assay (KinaseProfiler, Eurofins), DYRK2; conditions: in vitro radiometric kinase assay, tested at 1 nM to 10 000 nM, no pre-incubation; read-out: inhibitory activities (IC50 values) DYRK2
T2 construct: purchased Eurofins (KinaseProfiler)
T2 sequence (Q92630 1-601): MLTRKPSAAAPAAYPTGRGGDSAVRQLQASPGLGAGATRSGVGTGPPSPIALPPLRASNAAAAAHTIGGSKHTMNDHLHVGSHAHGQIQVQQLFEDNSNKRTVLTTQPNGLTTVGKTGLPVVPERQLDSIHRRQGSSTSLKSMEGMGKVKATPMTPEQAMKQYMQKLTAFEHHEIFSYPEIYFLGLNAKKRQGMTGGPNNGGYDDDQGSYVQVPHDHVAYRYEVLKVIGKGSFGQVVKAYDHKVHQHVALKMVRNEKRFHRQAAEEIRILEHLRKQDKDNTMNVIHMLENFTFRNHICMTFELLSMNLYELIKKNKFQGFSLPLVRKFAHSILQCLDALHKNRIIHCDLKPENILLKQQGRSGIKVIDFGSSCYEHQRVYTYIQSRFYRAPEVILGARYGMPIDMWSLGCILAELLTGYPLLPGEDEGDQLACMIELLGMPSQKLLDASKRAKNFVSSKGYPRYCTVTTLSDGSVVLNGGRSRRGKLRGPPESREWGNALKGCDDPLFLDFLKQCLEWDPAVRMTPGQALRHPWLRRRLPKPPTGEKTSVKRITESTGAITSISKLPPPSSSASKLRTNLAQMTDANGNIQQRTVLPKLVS
Description: as §1, §3
DYRK2 (h) was incubated with 8 mM MOPS pH 7.0, 0.2 mM EDTA, 2 mg/mL casein, 10 mM magnesium acetate and γ-^33P-ATP (specific activity and concentration as required). The reaction was initiated by the addition of the Mg/ATP mix. After incubation for 40 minutes at room temperature, the reaction was stopped by the addition of phosphoric acid to a concentration of 0.5%. An aliquot of the reaction was then spotted onto a filter and washed four times for 4 minutes in 0.425% phosphoric acid and once in methanol prior to drying and scintillation counting.
as §5

TAF1L(h) = molecular target: T3, TAF1L(h) (Homo sapiens, UniProt Q8IZX4); assay: radiometric kinase assay (KinaseProfiler, Eurofins), TAF1L; conditions: in vitro radiometric kinase assay, tested at 1 nM to 10 000 nM, no pre-incubation; read-out: inhibitory activities (IC50 values) TAF1L
T3 construct: purchased Eurofins (KinaseProfiler)
T3 sequence (Q8IZX4 whole entry): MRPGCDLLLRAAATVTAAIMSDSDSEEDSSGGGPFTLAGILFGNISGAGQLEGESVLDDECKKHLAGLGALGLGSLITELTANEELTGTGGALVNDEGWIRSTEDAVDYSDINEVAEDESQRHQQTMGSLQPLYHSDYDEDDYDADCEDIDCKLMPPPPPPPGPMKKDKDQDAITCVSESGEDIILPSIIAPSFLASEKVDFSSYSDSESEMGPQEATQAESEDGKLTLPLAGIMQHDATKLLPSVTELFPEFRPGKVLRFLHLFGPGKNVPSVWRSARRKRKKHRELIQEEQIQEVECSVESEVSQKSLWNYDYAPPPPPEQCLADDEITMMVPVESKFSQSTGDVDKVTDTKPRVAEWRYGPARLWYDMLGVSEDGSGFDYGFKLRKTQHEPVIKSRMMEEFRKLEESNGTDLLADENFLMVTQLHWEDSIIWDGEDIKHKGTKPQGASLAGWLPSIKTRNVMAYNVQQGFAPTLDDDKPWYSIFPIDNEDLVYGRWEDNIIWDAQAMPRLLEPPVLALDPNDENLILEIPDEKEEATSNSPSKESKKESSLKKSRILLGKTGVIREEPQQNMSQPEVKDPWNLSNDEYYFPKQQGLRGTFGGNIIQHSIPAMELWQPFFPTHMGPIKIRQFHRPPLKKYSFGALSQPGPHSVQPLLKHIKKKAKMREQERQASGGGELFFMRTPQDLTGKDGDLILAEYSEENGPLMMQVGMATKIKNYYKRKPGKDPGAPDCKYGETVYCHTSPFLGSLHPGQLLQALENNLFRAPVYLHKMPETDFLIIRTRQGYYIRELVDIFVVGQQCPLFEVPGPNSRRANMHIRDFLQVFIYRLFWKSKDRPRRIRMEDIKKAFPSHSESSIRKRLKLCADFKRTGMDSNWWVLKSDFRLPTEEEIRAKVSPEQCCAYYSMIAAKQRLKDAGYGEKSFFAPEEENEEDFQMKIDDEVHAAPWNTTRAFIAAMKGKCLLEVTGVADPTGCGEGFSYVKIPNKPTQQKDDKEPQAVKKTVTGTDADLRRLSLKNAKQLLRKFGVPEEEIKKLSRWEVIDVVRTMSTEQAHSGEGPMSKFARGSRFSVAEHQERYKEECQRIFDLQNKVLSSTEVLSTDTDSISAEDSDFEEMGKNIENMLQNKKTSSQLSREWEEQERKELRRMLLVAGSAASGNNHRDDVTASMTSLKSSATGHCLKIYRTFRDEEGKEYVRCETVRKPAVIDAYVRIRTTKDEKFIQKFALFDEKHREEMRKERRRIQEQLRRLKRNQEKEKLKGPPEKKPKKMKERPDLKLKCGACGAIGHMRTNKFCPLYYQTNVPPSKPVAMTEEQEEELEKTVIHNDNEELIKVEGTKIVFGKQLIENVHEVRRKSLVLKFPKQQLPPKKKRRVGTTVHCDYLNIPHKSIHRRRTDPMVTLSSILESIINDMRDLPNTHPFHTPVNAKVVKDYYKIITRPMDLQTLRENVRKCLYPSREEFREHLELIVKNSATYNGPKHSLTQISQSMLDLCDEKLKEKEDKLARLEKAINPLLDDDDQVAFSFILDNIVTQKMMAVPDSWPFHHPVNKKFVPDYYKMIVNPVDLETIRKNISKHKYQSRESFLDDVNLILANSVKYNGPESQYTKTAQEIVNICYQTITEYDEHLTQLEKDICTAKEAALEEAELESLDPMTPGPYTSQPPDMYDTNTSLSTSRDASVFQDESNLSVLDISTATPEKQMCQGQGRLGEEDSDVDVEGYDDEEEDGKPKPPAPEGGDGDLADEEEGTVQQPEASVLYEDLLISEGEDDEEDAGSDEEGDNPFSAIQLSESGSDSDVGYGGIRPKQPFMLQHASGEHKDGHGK
Description: as §1, §2, §3
as §4, with “TAF1L(h)” for “CDKL4(h)”, “20” for “8”, “Tris/HCl” for “MOPS”, “8.5,” for “7.0,”
as §5

TRB2(h) = molecular target: T4, TRB2(h) (Homo sapiens, UniProt Q92519); assay: radiometric kinase assay (KinaseProfiler, Eurofins), TRB2; conditions: in vitro radiometric kinase assay, tested at 1 nM to 10 000 nM, no pre-incubation; read-out: inhibitory activities (IC50 values) TRB2
T4 construct: purchased Eurofins (KinaseProfiler)
T4 sequence (Q92519 1-343): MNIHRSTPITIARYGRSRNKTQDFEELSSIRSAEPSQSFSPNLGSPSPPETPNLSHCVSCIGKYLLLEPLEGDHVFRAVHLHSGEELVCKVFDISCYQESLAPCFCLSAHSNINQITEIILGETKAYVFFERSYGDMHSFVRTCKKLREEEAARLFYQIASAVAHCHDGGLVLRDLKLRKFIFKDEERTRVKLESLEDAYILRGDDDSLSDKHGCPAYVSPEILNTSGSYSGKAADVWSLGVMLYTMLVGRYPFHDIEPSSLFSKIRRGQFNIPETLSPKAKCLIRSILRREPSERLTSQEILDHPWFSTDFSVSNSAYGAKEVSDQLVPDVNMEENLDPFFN
Description: as §1, §2, §3
as §4, with “TRB2(h)” for “CDKL4(h)”
as §5

T1 sequence (Q5MAI5 whole entry): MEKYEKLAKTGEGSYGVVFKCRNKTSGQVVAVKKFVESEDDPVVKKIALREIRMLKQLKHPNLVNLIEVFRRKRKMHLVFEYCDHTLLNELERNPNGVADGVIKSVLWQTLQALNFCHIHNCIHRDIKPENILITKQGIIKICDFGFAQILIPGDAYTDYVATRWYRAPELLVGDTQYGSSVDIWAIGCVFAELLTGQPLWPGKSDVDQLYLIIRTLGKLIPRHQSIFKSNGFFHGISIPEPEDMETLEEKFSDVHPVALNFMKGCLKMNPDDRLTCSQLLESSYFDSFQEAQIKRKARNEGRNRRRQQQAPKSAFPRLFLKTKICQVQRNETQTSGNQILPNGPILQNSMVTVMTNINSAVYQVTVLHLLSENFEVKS

| Structure (SMILES) | IC50 (CDKL4(h)) | IC50 (DYRK2 (h)) | IC50 (TAF1L(h)) | IC50 (TRB2(h)) |
| --- | --- | --- | --- | --- |
| Cn1cc(-c2ccc3scc(-c4ccnc(F)c4)c3n2)cn1 [Preparative Example 22, 3-(2-fluoropyridin-4-yl)-5-(1-methyl-1H-pyrazol-4-yl)thieno[3,2-b]pyridine] | 100 to 499 nM | 500 to 3000 nM | 100 to 499 nM | 100 to 499 nM |
| Cc1nn(C)c(C)c1-c1ccc2scc(-c3ccncc3)c2n1 [Preparative Example 85, 3-(pyridin-4-yl)-5-(1,3,5-trimethyl-1H-pyrazol-4-yl)thieno[3,2-b]pyridine] | 500 to 3000 nM | 3000 to 10000 nM | 500 to 3000 nM | 500 to 3000 nM |
| Cn1cc(-c2ccc3scc(-c4ccncc4)c3n2)cn1 [Preparative Example 13, 5-(1-methyl-1H-pyrazol-4-yl)-3-(pyridin-4-yl)thieno[3,2-b]pyridine] | 100 to 499 nM | 500 to 3000 nM | 100 to 499 nM | 500 to 3000 nM |
| Cc1cnccc1-c1csc2ccc(-c3cnn(C)c3)nc12 [Preparative Example 32, 5-(1-methyl-1H-pyrazol-4-yl)-3-(3-methylpyridin-4-yl)thieno[3,2-b]pyridine] | 500 to 3000 nM | 3000 to 10000 nM | 500 to 3000 nM | 3000 to 10000 nM |
| Cn1cc(-c2ccc3scc(-c4ccnc(CN)c4)c3n2)cn1 [Preparative Example 28, (4-(5-(1-methyl-1H-pyrazol-4-yl)thieno[3,2-b]pyridin-3-yl)pyridin-2-yl)methanamine] | 500 to 3000 nM | 100 to 499 nM | 500 to 3000 nM | 500 to 3000 nM |

Results, then the compound that gave them:

| IC50 (CDKL4(h)) | IC50 (DYRK2 (h)) | IC50 (TAF1L(h)) | IC50 (TRB2(h)) | Structure (SMILES) |
| --- | --- | --- | --- | --- |
| 500 to 3000 nM | 3000 to 10000 nM | 500 to 3000 nM | 500 to 3000 nM | Cn1cc(-c2csc3ccc(Oc4ccccc4)nc23)cn1 [Preparative Example 139, 3-(1-methyl-1H-pyrazol-4-yl)-5-phenoxythieno[3,2-b]pyridine] |
| 500 to 3000 nM | 3000 to 10000 nM | 500 to 3000 nM | 500 to 3000 nM | Cn1ncc(-c2ccc3scc(-c4ccncc4)c3n2)n1 [Preparative Example 94, 5-(2-methyl-2H-1,2,3-triazol-4-yl)-3-(pyridin-4-yl)thieno[3,2-b]pyridine] |
| 100 to 499 nM | 100 to 499 nM | 20 to 99 nM | 100 to 499 nM | Cn1cc(-c2ccc3scc(-c4cncs4)c3n2)cn1 [Preparative Example 69, 5-(1-methyl-1H-pyrazol-4-yl)-3-(thiazol-5-yl)thieno[3,2-b]pyridine] |
| 100 to 499 nM | 3000 to 10000 nM | 100 to 499 nM | 100 to 499 nM | Cn1cc(-c2cc(Cl)c3scc(-c4ccncc4)c3n2)cn1 [Preparative Example 162, 7-chloro-5-(1-methyl-1H-pyrazol-4-yl)-3-(pyridin-4-yl)thieno[3,2-b]pyridine] |
| 100 to 499 nM | 500 to 3000 nM | 100 to 499 nM | 500 to 3000 nM | Cc1cc(-c2csc3ccc(-c4cnn(C)c4)nc23)cc(C)n1 [Preparative Example 30, 3-(2,6-dimethylpyridin-4-yl)-5-(1-methyl-1H-pyrazol-4-yl)thieno-[3,2-b]pyridine] |
| 100 to 499 nM | 500 to 3000 nM | 100 to 499 nM | 100 to 499 nM | Cc1cc(-c2csc3ccc(-c4cnn(C)c4)nc23)ccn1 [Preparative Example 15, 5-(1-methyl-1H-pyrazol-4-yl)-3-(2-methylpyridin-4-yl)-thieno[3,2-b]pyridine] |
| 20 to 99 nM | 100 to 499 nM | 20 to 99 nM | 100 to 499 nM | Cn1cc(-c2ccc3scc(Nc4ccccc4)c3n2)cn1 [Preparative Example 76, 5-(1-methyl-1H-pyrazol-4-yl)-N-phenylthieno[3,2-b]pyridin-3-amine] |
